Assay results from patent publication US11632953B2, “Method for controlling hematophagous or sap-feeding arthropods” (Board of Supervisors of Louisiana State University and …, priority 2016, dated 2023).
In brackets after ≈: the same amount, converted by molar mass. Entries after “also recorded” stand apart in the source; their conditions may differ. Where two headings read alike, the source gives them in different places.

Experiments:
[1] = test system: Aphis gossypii; test: aphid feeding on treated cotton leaves, electrophenegraph technique; assay type: in vivo; conditions: barium chloride at 300 micromolar
Protocol: FIGS. 14(A) and (B) depict measurements of aphid (Aphis gossypi) feeding on cotton leaves, as measured through the electrophenegraph technique; on control leaves and on leaves treated with the Kir inhibitor barium, respectively.
In aphids, a specific Kir channel blocker (barium chloride at 300 micromolar) was coated onto leaf tissue, and the feeding behavior of the adult aphid was analyzed through the classical electrophenegraph technique.

[2] = test system: mosquitoes; test: topical toxicity to mosquitoes (species not specified); assay type: in vivo; conditions: dose of 10 μg per mg; within 24 h
[3] = molecular target: Kir1.1 (Homo sapiens (Human), UniProt P48048); test: thallium (Tl+) flux assay; assay type: cell-based, mammalian
Kir1.1, sequence (P48048 whole entry): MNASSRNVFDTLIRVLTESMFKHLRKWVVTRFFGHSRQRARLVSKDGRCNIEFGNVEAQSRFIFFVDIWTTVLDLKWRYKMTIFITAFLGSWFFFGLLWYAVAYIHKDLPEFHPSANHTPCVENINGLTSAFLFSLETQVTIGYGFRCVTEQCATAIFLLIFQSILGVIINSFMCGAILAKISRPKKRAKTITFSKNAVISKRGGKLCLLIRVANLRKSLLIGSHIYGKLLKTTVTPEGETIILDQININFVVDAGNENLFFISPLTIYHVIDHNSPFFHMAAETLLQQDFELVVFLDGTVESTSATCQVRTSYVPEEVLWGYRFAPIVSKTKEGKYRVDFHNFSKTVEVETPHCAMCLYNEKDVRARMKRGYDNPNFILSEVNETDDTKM

[4] = molecular target: hKir2.1 (Homo sapiens (Human), UniProt P63252); test: thallium (Tl+) flux assay; assay type: cell-based
hKir2.1, sequence (P63252 whole entry): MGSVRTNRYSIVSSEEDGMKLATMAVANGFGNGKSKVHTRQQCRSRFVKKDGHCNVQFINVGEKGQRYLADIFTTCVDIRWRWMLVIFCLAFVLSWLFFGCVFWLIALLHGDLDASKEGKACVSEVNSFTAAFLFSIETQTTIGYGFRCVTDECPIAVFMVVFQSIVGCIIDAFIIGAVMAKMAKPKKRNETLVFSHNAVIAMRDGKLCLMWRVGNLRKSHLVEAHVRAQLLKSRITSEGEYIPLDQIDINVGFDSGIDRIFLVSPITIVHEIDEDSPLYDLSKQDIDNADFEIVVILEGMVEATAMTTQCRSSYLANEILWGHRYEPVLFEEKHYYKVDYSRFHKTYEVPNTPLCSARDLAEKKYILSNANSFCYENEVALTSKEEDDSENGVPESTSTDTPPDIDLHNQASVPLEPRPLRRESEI

[5] = molecular target: Kir4.1 (Homo sapiens (Human), UniProt P78508); test: thallium (Tl+) flux assay; assay type: cell-based, mammalian; conditions: means (n = 3); read-out: IC50 μM (95% Cl)
Kir4.1, sequence (P78508 whole entry): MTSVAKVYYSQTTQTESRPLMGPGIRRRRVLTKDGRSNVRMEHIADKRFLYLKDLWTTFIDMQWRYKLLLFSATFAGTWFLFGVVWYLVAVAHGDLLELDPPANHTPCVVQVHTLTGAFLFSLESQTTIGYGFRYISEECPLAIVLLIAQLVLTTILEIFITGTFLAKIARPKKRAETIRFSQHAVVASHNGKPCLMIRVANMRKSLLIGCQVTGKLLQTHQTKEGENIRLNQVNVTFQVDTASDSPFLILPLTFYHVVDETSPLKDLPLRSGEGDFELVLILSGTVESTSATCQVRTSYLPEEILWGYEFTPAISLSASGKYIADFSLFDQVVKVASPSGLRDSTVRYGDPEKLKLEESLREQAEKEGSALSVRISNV
Protocol: (§1) The thallium flux assay is an in vitro method of measuring conductance through a potassium ion channel. Potassium channels are also permeable to thallium ions. The modulation of a K^+ channel will thus increase or decrease thallium ion flow through the channel and thus, alter the observed fluorescence of a thallium-specific indicator dye.
(§2) Stably transfected T-Rex-HEK-293-AnKir1 cells were cultured overnight in 384-well plates in media containing DMEM, 10% dialyzed FBS, and 1 μg/mL tetracycline to induce channel expression. The next day the cell culture medium was replaced with a dye-loading solution containing assay buffer (Hanks Balanced Salt Solution with 20 mM HEPES, pH 7.3), 0.01% (w/v) Pluronic F-127 (Life Technologies, Carlsbad, Calif.), and 1.2 μM of the thallium-sensitive dye Thallos-AM (TEFlabs, Austin, Tex.). After 1 hr incubation at room temperature, the dye-loading solution was washed from the plates and replaced with 20 μL/well of assay buffer. […] To ensure the small-molecule vehicle DMSO had no direct effect on AnKir1-dependent Tl^+ flux, the assay's tolerance to different doses of DMSO was evaluated. The robustness and reproducibility of the assay was determined by comparing Tl^+ flux through tetracycline-induced and tetracycline-free cells. The Z′ value was calculated as:
(§3) Z′=1−(3SDp+3SDn)/|meanp+meann| where SD is standard deviation, and p and n are control and uninduced flux values, respectively. […] Half-inhibition concentration (IC50) values were calculated from fits using a four parameter logistic equation. […]
(§4) Tl^+ flux data were analyzed using Excel (Microsoft Corp, Redmond, Wash.) with XLfit add-in (IDBS, Guildford, Surrey, UK), OriginPro (Origin Lab, Northampton, Mass.), and GraphPad Prism (GraphPad Software, San Diego, Calif., USA) software. […] The slope of the fluorescence increase beginning 5 s after Tl^+ addition and ending 15 s after Tl^+ addition was calculated.

[6] = molecular target: Kir6.2/SUR1 (Homo sapiens (Human), UniProt Q09428+Q14654); test: thallium (Tl+) flux assay; assay type: cell-based, mammalian
Kir6.2/SUR1, sequence (Q14654 whole entry): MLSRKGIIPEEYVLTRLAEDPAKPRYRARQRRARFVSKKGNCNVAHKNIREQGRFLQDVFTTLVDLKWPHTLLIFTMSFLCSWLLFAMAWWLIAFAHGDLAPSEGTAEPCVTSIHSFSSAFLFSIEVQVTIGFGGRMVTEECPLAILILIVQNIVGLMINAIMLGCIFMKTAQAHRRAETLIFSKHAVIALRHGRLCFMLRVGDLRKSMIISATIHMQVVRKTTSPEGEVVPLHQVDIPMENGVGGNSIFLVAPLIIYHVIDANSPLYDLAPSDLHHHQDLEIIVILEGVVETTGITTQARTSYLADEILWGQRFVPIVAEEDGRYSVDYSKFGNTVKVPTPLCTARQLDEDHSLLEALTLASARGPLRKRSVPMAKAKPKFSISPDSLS
Kir6.2/SUR1, sequence (Q09428 whole entry): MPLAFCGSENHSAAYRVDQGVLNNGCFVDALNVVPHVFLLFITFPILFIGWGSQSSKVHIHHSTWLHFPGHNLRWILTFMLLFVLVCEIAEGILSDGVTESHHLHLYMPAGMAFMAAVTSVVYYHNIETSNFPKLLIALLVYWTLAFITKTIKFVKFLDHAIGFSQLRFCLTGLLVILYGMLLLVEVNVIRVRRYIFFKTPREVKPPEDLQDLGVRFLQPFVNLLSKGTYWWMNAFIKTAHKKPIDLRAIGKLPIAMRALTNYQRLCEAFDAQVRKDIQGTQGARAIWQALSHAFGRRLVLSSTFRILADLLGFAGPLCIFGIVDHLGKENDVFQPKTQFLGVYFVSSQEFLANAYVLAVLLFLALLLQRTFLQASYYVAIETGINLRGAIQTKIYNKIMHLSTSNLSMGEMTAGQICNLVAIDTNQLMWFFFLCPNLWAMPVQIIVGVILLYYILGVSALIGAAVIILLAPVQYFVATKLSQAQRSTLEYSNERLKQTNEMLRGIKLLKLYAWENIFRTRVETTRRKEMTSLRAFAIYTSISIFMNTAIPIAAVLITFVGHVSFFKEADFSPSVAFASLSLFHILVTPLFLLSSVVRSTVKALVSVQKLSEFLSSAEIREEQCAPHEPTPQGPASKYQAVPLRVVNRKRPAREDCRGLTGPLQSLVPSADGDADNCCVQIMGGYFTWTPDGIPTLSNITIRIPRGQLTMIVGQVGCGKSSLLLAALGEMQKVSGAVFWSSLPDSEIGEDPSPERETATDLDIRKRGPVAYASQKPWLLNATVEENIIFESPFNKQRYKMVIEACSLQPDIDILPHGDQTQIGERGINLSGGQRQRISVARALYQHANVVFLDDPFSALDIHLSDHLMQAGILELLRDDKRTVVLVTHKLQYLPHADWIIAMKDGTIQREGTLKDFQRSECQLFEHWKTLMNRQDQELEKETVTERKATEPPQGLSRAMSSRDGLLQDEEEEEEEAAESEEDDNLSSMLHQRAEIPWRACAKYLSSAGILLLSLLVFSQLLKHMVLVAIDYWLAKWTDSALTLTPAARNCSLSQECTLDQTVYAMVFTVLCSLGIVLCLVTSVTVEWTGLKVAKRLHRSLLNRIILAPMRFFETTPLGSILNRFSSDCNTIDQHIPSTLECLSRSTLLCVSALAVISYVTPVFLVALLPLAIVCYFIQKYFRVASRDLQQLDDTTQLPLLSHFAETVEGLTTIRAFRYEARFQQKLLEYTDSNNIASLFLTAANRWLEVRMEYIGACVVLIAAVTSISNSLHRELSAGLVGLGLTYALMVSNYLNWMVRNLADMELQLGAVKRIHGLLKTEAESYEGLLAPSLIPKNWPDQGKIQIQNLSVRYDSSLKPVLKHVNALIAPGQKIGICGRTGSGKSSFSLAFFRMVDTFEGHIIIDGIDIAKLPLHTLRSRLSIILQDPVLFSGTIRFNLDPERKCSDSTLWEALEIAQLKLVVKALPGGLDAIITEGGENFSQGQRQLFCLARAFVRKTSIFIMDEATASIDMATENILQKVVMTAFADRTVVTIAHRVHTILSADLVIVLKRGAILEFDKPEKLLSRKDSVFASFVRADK
Protocol: as §1, §2, §3, §4

[7] = test system: An. gambiae; test: topical toxicity bioassay in adult female An. gambiae; assay type: in vivo, Anopheles gambiae; conditions: for ED50 (95% confidence limits), Akron Strain / ED50 (95% confidence limits), G3 Strain: topical, synergists 500 ng/insect four hours prior
Protocol: Topical toxicity bioassays were performed on non-blood-fed adult female mosquitoes. The mosquitoes were chilled on ice for 1-3 minutes, during which 200 nL of compound (dissolved in 95% ethanol) was applied onto the abdomen of each insect with a handheld Hamilton® micro-applicator. […] […] The three resulting ED50 values were averaged. An ethanol-only treatment was included in each experiment as a negative control. Treated mosquitoes were transferred to small cages with access to 10% sucrose and held under rearing conditions for 24 h. Mortality was recorded at 24 h.

[8] = test system: An. gambiae; test: blood meal processing, abdominal diameter; assay type: in vivo, Anopheles gambiae; conditions: topical, ED30 dose of VU041 after engorgement
Protocol: Blood meal processing studies were performed with similar methods, with the exception that An. gambiae were blood-fed on anesthetized mice. All methods were carried out in accordance with Vanderbilt Institutional Animal Care and Use Committee approval. Upon completion of blood feeding, female mosquitoes with fully distended abdomens were selected, and 200 nL of compound at a non-lethal concentration (1 μg/mg) was applied directly to the abdomen. Any mosquito that died during the 24 h observation period was excluded from the analysis. Images of the abdomens were acquired at 0, 2, 5, 8, and 24 h through the dorsal cuticle; abdomens were measured at the widest point. Images were captured using bright-field illumination on a Nikon 90i light microscope (Nikon Corp., Tokyo, Japan) connected to a Photometrics CoolSNAP HQ2 high-sensitivity monochrome CCD camera (Roper Scientific, Ottobrunn, Germany). Digital images were acquired using Nikon Advanced Research NIS-Elements software. Mean abdominal diameters were compared using one-way ANOVA with a Tukey's post-hoc analysis (Prism 6, Graphpad Software, La Jolla, Calif.).

[9] = solubility limit in feeding solution
[10] = means (n = 3), read-out: IC50 μM (95% Cl)

| Structure (SMILES) | feeding phases (egestion, salivation, ingestion) [1] | lethality against mosquitoes [2] | inhibition at 30 µM ([3]; concentration of 30 μM) | IC50 [3, 10] | IC50 ([4]; SAR libraries, read-out: hKir2.1 IC50) | IC50 ([4]; means (n = 3), selectivity panel, read-out: IC50 μM (95% Cl)) | IC50 [5] | inhibition at 30 µM ([6]; concentration of 30 μM) | IC50 [6, 10] | enhancement of toxicity by inhibition of CYP450s in the AKRON strain over the G3 strain ([7]; Akron strain) | enhancement of efficacy by PBO pretreatment ([7]; G3 strain) | enhancement of toxicity by DEF pre-treatment ([7]; G3 strain) | ED50 (95% confidence limits), Akron Strain ([7]; 24 h, Akron strain) | ED50 (95% confidence limits), G3 Strain ([7]; 24 h, G3 strain) | abdominal diameter over 24 h after blood feeding [8] | solubility ([9]; 5% (wt/vol) sucrose solution, water) | topical toxicity ([7]; adult females, 24 h) | solubility limit ([9]; 5% sucrose solution) |
| --- | --- | --- | --- | --- | --- | --- | --- | --- | --- | --- | --- | --- | --- | --- | --- | --- | --- | --- |
| O=C(Cn1nc(C(F)(F)F)c2c1CCCC2)N1CCCc2ccccc21 [VU041, 1-(3,4-dihydroquinolin-1(2H)-yl)-2-(3-(trifluoromethyl)-4,5,6,7-tetrahydro-1H-indazol-1-yl)ethan-1-one] | No salivation was observed; also recorded: essentially completely inhibited egestion, salivation, and ingestion | ~100% | < 10% | > 30 µM | 11.3 µM | 12.7 µM | > 30 µM | < 10% | > 30 µM | 3 fold | ~3 fold | did not enhance toxicity | 2.8 (2.1-4.1) A μg/mg | 1.8 (0.9-3.1) A μg/mg | did not thereafter change much | 200 µM (≈ 72.7 µg/mL) |  |  |
| O=C(Cn1nc(C(F)(F)F)c2c1CCCC2)NC1CCC1 [VU937] | fed normally; also recorded: did not affect feeding |  |  |  |  |  |  |  |  |  |  |  | >10 µg/mg | >10 µg/mg | decreased significantly over 24 h |  | not toxic | 700 µM (≈ 211 µg/mL) |
